Data on eight compounds can be found in patent US12240844B2 (Voronoi, Inc., priority 2019, dated 2025).

Molecules are shown by their SMILES.

Assay [1] addresses T1, human GST-CLK1 (129-end) (Homo sapiens, UniProt P49759).
T1 construct: purified human GST-CLK1 (129-end, Signalchem) enzyme; GST; purchased Signalchem
The assay is described as follows: GST-CLK1 enzyme inhibition, ADP-Glo kinase assay. In kind it is biochemical. As to conditions: ATP 10 uM. The essentials: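 ADP formation was read by ADP-Glo luminescence after 1 h at 25° C with 3 ng human GST-CLK1 (129-end), substrate and 10 uM ATP in Tris pH 7.4 buffer containing MgCl2, BSA and DTT. Inhibition relative to untreated solvent control gave IC50 (nM), run in triplicate.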

For assay [2], the target named is T2, LRRK2, LRRK2 (G2019S), DYRK1, CLK1 and TTK kinases (Homo sapiens, UniProt Q13627).
T2 construct: other: DYRK1; Kinase HotSpot service (Reaction Biology), ATP 10 uM
The assay is described as follows: Enzyme IC50 by Kinase HotSpot service (Reaction Biology Corporation), values marked with *. In kind it is biochemical. As to conditions: DYRK1, ATP 10 uM. The procedure:
(§1) Meanwhile, the enzyme IC50 measurement for some compounds was performed using Kinase HotSpot service (Reaction Biology Corporation); during the test, the ATP concentration was 10 uM, where all were conducted under the same condition; and the concentration of the compound was measured by giving a 3-fold concentration gradient with the highest concentration of […], where the values measured using Kinase HotSpot service (Reaction Biology Corporation) were marked with “*”.
(§2) All experimental methods were performed as provided in Kinase HotSpot Customer Protocol (http://www.reactionbiology.com//Kinase_Assay_Protocol).
(§3) In the table below, the following designations were used for the evaluation of enzyme inhibitory ability.

Assay [3] relates to MDA-MB-231 cell line. Nature of the assay: MDA-MB-231 cancer cell proliferation inhibition (Cell Titer-Glo). As to conditions: Homo sapiens, MDA-MB-231 triple-negative breast cancer cell line, 72 hours. In kind it is cell-based. The gist of the method:
(§4)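 GI50 comes from CellTiter-Glo luminescence, read 10 min after reagent addition at RT, following 72 h compound treatment. Eleven concentrations were used (⅓ steps, highest 10 μM final) on 2000 cells/well. MDA-MB-231 and MDA-MB-468 were grown in DMEM, SHP-77 in RPMI.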
For orientation: ATP-based viability assays read luminescence as a measure of living cells.

Assay [4] concerns human DYRK1A and Tau. Nature of the assay: Tau phosphorylation inhibition, ClariCELL Kinase Cell-Based Assay (Carnabio). The essentials:
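HEK293 cells transiently expressing human DYRK1A and Tau were exposed to compound, then lysed. Released Tau was captured on plate and its phosphorylation quantified by ELISA with a phospho-Tau-specific antibody.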

Assay [5] has as its target LRRK2 (Homo sapiens, UniProt Q5S007). Nature of the assay: LRRK2 enzyme inhibition, ADP-Glo kinase assay. In kind it is biochemical. Further details: purchased Invitrogen PR8604B. The essentials: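 ADP-Glo luminescence read after 2 h at 25° C, 10 μM ATP, 25 ng purified human LRRK2 and […] substrate in Tris-HCl pH7.4 buffer with MgCl2, BSA, DTT. Twelve final concentrations, 50 μM down to 0.000001024 μM; IC50 (nM) from inhibition relative to untreated solvent control.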
Background: ADP-Glo turns the ADP formed in a reaction into a luminescent signal.

For assay [6], the target named is T3, TTK (Homo sapiens, UniProt P33981).
T3 sequence (P33981 1-857): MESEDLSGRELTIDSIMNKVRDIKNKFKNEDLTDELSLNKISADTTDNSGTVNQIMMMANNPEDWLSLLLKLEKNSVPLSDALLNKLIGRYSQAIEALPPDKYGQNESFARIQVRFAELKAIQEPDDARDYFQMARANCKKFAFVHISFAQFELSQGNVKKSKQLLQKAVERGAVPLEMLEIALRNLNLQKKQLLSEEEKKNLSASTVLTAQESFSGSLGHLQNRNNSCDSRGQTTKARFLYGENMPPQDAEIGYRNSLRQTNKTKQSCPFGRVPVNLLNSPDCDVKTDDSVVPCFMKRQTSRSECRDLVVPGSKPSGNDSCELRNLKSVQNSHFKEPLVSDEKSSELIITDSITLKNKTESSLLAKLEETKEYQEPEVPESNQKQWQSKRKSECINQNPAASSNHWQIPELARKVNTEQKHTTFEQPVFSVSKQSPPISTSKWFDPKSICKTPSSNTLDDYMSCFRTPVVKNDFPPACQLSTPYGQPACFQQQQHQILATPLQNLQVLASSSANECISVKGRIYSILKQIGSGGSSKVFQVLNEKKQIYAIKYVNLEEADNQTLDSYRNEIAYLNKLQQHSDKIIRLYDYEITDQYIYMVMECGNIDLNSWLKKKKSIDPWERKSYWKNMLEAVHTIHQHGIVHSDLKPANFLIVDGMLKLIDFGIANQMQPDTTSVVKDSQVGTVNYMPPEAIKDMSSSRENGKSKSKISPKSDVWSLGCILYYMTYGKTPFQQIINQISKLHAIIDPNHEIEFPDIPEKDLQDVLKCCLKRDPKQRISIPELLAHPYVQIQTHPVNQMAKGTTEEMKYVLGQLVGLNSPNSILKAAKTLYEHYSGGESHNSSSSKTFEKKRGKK
Nature of the assay: TTK enzyme inhibition, ADP-Glo kinase assay. The assay is classed as biochemical. Further details: purchased Signalchem T20-10G. To be noted: ATP 5 μM. On the procedure:
In order to evaluate the inhibitory activity of the compounds according to the present invention on LRRK2, LRRK2 (G2019S), DYRK1, CLK1 and TTK kinases, the following experiment was performed.
Example compounds were reacted with the purified human TTK (Signalchem #T20-10G) enzyme to evaluate the enzyme inhibitory ability as follows. The reaction buffer was used as the composition of 40 mM Tris-HCl pH7.4, 20 mM MgCl2, 0.1 mg/ml BSA (5× kinase buffer, Signalchem #K03-09) and 50 μM DTT (Signalchem #D86-09B), and the reaction of all test materials was performed on the reaction buffer. The compound was diluted with 10 mM DMSO stock in […] by a serial dilution method, and the enzyme activity was measured at the final compound concentrations of 1, 0.333333, 0.111111, 0.037037, 0.012346, 0.004115, 0.001372, 0.000457, 0.000152, 0.000051 and 0.000017 μM. In the test, the human TTK (7.5 ng) enzyme was reacted with the purified ATP (5 μM, Promega #V6930) and an MBP enzyme substrate (0.2 μg, Signalchem M42-51N) at 25° C. for 4 hours, and then the enzyme activity was identified using the in vitro ADP-Glo™ kinase assay (Promega #V6930). The enzyme activity reaction liquid, an ADP-Glo reaction liquid and an enzyme potency detection solution were reacted in a ratio of 2:2:1, and the degree of inhibition of enzyme activity was measured by luminescence. The degree of inhibition of enzyme activity according to the treatment concentrations of the respective compounds was calculated based on the luminescence degree of the enzyme activity of a solvent control group that was not treated with the compound, where the concentration of each compound to inhibit enzyme activity inhibition by 50% was determined as an IC50 (nM) value and obtained using Prism (Version 8.2, GraphPad) software.
as §3

For assay [7], the system named is SHP-77. The assay is described as follows: SHP-77 cancer cell proliferation inhibition (Cell Titer-Glo). In kind it is cell-based. As to conditions: Homo sapiens, SHP77, SHP-77 small cell lung cancer cell line, 72 hours. The essentials: as §4
For assay [8], the target named is LRRK2 (G2019S) (Homo sapiens, UniProt Q5S007, G2019S). Nature of the assay: LRRK2 G2019S enzyme inhibition, ADP-Glo kinase assay. In kind it is biochemical. Details: purchased SignalChem L10-12GG. The gist of the method:
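Activity read as ADP-Glo luminescence, normalized to untreated solvent control, with IC50 (nM) fitted over 12 final compound levels (top 50 μM). Reaction: 2 h, 25° C, human LRRK2 G2019S 16 ng, ATP 25 μM, substrate 0.2 μg, in Tris-HCl pH 7.4 with MgCl2, BSA and DTT.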

The target of assay [9] is T4, LRRK2, LRRK2 (G2019S), DYRK1, CLK1 and TTK kinases (Homo sapiens, UniProt P49759).
T4 construct: CLK1 IC50 (marked with *); other: CLK1; Kinase HotSpot service (Reaction Biology), ATP 10 uM
T4 sequence (P49759 whole entry, stated change not applied): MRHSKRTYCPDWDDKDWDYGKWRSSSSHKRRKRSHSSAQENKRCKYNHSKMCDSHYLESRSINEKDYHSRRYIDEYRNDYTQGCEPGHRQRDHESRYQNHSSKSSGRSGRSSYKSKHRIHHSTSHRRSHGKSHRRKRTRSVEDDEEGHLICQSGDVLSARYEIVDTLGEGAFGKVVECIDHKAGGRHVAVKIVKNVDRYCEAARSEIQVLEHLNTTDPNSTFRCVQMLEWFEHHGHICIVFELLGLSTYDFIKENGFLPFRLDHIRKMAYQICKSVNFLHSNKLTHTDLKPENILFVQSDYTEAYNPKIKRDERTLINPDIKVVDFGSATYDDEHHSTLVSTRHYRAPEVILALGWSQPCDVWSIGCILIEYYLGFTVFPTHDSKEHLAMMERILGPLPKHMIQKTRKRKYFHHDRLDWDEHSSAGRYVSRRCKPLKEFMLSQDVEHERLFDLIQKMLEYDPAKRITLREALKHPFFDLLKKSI
Nature of the assay: Enzyme IC50 by Kinase HotSpot service (Reaction Biology Corporation), values marked with *. In kind it is biochemical. To be noted: CLK1, ATP 10 uM. On the procedure: as §1, §2, §3

In assay [10] the target is T5, LRRK2, LRRK2 (G2019S), DYRK1, CLK1 and TTK kinases (Homo sapiens, UniProt Q5S007).
T5 construct: LRRK2 IC50 (marked with *); other: LRRK2; Kinase HotSpot service (Reaction Biology), ATP 10 uM
T5 sequence (Q5S007 whole entry G2019S): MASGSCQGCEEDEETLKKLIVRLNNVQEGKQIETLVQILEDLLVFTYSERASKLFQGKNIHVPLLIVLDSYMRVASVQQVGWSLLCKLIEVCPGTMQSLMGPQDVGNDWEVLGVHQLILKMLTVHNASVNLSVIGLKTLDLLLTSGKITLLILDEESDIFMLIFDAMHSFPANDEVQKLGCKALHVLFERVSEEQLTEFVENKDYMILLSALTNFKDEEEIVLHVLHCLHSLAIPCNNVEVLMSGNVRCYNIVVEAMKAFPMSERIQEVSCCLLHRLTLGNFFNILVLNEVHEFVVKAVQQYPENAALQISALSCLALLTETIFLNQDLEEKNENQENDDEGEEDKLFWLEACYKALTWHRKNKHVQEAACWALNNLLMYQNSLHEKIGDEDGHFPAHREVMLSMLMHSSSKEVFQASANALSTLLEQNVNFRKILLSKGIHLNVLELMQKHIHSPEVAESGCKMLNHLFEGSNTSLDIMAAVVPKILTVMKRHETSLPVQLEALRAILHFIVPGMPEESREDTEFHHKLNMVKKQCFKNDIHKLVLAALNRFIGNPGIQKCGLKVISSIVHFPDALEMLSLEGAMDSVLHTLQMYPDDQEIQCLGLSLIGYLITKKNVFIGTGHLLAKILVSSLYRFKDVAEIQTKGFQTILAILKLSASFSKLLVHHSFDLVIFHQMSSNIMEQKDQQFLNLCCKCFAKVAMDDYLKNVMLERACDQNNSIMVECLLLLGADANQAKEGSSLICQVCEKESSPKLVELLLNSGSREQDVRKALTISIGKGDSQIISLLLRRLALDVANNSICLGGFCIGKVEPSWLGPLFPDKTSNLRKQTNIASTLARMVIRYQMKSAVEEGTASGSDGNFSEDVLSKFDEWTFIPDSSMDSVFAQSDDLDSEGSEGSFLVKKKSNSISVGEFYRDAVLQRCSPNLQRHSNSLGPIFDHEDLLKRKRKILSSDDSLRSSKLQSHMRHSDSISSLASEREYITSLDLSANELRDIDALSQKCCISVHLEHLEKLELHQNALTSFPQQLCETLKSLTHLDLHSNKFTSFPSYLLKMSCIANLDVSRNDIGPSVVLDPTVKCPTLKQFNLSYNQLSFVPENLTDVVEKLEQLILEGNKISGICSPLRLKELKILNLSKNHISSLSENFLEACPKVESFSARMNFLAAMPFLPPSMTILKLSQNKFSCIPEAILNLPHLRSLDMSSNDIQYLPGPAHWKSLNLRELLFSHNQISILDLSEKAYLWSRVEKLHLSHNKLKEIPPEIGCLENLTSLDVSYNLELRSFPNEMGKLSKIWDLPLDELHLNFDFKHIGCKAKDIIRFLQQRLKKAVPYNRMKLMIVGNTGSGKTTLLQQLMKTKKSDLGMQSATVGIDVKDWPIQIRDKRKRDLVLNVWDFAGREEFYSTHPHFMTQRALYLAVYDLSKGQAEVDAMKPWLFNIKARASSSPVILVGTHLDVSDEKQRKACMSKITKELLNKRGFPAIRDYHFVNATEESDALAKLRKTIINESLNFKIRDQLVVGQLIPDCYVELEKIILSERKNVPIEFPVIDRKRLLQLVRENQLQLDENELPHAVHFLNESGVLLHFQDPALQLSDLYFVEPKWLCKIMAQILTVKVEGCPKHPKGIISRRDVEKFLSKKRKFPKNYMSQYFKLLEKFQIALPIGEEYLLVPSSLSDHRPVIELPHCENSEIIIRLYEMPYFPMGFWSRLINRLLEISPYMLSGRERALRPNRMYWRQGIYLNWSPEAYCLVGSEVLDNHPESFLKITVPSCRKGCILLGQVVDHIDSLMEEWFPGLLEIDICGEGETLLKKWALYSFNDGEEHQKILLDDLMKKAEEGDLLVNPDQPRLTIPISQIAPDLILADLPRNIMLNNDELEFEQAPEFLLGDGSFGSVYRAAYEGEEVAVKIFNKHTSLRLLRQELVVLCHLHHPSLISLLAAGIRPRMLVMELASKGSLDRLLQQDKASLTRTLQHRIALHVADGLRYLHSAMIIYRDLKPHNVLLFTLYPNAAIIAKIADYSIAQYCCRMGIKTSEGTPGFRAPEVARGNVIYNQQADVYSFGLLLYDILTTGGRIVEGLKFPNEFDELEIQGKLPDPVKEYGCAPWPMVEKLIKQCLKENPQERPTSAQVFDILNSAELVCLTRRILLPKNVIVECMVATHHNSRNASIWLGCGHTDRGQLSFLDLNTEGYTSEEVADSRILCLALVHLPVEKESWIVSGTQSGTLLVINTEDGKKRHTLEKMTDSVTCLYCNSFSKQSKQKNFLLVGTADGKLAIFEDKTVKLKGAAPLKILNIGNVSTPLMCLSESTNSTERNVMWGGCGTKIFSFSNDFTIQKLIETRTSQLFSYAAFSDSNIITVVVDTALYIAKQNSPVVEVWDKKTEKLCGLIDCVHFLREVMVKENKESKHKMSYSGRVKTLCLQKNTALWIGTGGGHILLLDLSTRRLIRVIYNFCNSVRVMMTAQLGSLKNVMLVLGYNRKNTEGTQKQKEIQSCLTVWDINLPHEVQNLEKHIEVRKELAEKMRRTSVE
The description is as above. In kind it is biochemical. As to conditions: LRRK2, ATP 10 uM. The procedure: as §1, §2, §3

T1 sequence (P49759 129-484 limits assumed): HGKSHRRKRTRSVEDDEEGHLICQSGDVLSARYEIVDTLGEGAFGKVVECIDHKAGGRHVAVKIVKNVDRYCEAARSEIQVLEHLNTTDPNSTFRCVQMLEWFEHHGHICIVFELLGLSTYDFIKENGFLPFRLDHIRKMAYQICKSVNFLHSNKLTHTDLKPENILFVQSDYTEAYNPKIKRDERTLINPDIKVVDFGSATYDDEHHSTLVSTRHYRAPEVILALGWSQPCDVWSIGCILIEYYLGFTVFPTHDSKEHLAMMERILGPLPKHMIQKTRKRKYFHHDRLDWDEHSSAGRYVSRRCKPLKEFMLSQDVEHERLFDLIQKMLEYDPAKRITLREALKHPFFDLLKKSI
Chain of LRRK2 (G2019S) (Q5S007 970-2527 G2019S limits assumed): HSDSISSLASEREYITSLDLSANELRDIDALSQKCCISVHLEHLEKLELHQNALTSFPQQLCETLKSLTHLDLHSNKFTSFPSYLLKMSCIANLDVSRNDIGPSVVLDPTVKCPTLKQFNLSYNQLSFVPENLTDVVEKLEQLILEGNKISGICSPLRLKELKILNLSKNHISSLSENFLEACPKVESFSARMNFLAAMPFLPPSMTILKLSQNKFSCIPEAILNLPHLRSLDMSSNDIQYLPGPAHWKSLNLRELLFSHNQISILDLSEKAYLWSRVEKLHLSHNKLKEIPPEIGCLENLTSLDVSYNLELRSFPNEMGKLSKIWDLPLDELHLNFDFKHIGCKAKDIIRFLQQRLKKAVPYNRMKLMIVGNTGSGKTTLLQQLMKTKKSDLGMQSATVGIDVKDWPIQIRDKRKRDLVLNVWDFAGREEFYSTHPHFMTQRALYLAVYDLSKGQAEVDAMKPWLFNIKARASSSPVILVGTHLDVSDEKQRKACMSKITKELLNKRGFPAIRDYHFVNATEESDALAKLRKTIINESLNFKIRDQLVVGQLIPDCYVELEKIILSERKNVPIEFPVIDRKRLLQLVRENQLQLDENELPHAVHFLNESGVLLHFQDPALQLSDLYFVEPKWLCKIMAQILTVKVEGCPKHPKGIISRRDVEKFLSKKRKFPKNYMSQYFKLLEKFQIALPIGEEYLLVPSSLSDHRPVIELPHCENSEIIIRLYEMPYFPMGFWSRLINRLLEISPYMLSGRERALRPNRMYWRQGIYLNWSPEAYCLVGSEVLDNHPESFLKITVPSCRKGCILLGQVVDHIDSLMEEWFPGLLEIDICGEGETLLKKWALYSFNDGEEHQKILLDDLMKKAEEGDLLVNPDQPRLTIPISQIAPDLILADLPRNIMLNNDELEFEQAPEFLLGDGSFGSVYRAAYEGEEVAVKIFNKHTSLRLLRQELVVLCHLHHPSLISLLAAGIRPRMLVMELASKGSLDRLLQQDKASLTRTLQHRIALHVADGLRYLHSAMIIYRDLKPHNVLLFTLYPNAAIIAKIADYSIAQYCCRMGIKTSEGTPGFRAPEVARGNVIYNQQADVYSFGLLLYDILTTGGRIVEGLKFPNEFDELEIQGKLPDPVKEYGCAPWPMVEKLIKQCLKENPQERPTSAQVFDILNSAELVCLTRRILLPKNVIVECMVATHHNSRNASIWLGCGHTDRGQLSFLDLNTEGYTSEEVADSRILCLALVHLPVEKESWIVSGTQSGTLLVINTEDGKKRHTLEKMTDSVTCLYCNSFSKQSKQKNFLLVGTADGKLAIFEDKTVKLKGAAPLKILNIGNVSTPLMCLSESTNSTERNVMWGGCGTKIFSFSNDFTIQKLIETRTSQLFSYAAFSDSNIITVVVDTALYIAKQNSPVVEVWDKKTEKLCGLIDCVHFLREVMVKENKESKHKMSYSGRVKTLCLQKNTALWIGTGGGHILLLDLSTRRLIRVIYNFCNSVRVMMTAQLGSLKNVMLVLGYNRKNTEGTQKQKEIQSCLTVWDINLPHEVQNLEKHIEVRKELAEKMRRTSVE
Chain of LRRK2 (Q5S007 970-2527 limits assumed): as the sequence (Q5S007 970-2527 G2019S limits assumed) above, with S1050G counted along it

A word on the IC50: it is the midpoint of a concentration-inhibition curve. Broadly, the GI50 is the concentration giving 50% growth inhibition. What is called inhibition is the change of the read-out against control, counted positive when it falls. Low readings indicate a weak effect, high ones a strong effect. In [1], `COc1cc(P2(=O)CCN(C3COC3)CC2)ccc1Nc1cc(C2CC2)c2c(C(F)(F)F)c[nH]c2n1` [Example 47, 4-(4-((4-cyclopropyl-3-(trifluoromethyl)-1H-pyrrolo[2,3-b]pyridin-6-yl)amino)-3-methoxyphenyl)-1-(oxetan-3-yl)-1,4-azaphosphinane 4-oxide] came in with an IC50 of less than 100 nM. In addition, in assay [2], the half-inhibitory concentration (IC50) was less than 100 nM. The compound further had a concentration for 50% growth inhibition (GI50) in [3] of 301 to 1000 nM. In assay [4], this compound came in with an inhibition at 0.25 µM of 3.7%, an inhibition at 0.5 µM of 15% and an inhibition at 1 µM of 22.4%. The compound further registered an IC50 in assay [5] of 101 to 300 nM.
The compound `O=C(c1ccc(Nc2cc(C3CC3)c3c(C(F)(F)F)c[nH]c3n2)c2c1OCCO2)N1CCN(C2COC2)CC1` [Example 101, (8-((4-cyclopropyl-3-(trifluoromethyl)-1H-pyrrolo[2,3-b]pyridin-6-yl)amino)-2,3-dihydrobenzo[b] [1,4]dioxin-5-yl)(4-(oxetan-3-yl)piperazin-1-yl)methanone] displayed an IC50 in assay [1] of 301 to 1000 nM. In assay [2], this compound came in with a 50% inhibitory concentration (IC50) of less than 100 nM. Also, in assay [4], 0.25 µM produced 9.9% inhibition, the inhibition at 0.5 µM came out at 11.2% and the inhibition at 1 µM was 20.7%. The compound further gave a half-inhibitory concentration (IC50) in [6] of less than 100 nM.
As to `COc1cc(P2(=O)CCN(C3CCOCC3)CC2)ccc1Nc1cc(C2CC2)c2c(C(F)(F)F)c[nH]c2n1` [Example 102, 4-(4-((4-cyclopropyl-3-(trifluoromethyl)-1H-pyrrolo[2,3-b]pyridin-6-yl)amino)-3-methoxyphenyl)-1-(tetrahydro-2H-pyran-4-yl)-1,4-azaphosphinane 4-oxide], the IC50 is 301 to 1000 nM in assay [1] and less than 100 nM in assay [2].
For `COCCNc1cc(Nc2ccc(S(=O)(=O)N3CCC(N4CCOCC4)CC3)cc2OC)nc2[nH]cc(C#N)c12` [Example 140, 6-((2-methoxy-4-((4-morpholinopiperidin-1-yl)sulfonyl)phenyl)amino)-4-((2-methoxyethyl)amino)-1H-pyrrolo[2,3-b]pyridine-3-carbonitrile], the concentration for half-maximal inhibition (IC50) in [1], in assay [2], in assay [5] and in assay [8] was less than 100 nM each time. In addition, the concentration for 50% growth inhibition (GI50) in assay [3] was less than 50 nM; in assay [7] it was 51 to 100 nM.
Regarding `COc1cc(P(C)(C)=O)ccc1Nc1cc(C2CC2)c2c(C(F)(F)F)c[nH]c2n1` [Example 219, (4-((4-cyclopropyl-3-(trifluoromethyl)-1H-pyrrolo[2,3-b]pyridin-6-yl)amino)-3-methoxyphenyl) dimethylphosphine oxide], the results for the half-inhibitory concentration (IC50) in assay [1] and in assay [2] were 301 to 1000 nM and less than 100 nM, respectively.
Take `COc1cc(S(C)(=O)=O)ccc1Nc1cc(C2CC2)c2c(C(F)(F)F)c[nH]c2n1` [Example 224, 4-cyclopropyl-N-(2-methoxy-4-(methylsulfonyl)phenyl)-3-(trifluoromethyl)-1H-pyrrolo[2,3-b]pyridin-6-amine]: the IC50 was 301 to 1000 nM in assay [1], less than 100 nM in [2], 301 to 1000 nM in assay [5] and 301 to 1000 nM in [8].
With `COc1cc(S(=O)(=O)N2CCC(N3C[C@H]4C[C@@H]3CO4)CC2)ccc1Nc1cc(C2CC2)c2c(C(F)(F)F)c[nH]c2n1` [Example 239, N-(4-((4-((1R,4R)-2-oxa-5-azabicyclo [2.2.1]heptan-5-yl)piperidin-1-yl)sulfonyl)-2-methoxyphenyl)-4-cyclopropyl-3-(trifluoromethyl)-1H-pyrrolo[2,3-b]pyridin-6-amine], the IC50 in assay [9] is less than 100 nM; in [2] it was less than 100 nM; in assay [10], less than 100 nM; in assay [8] it was 301 to 1000 nM. Moreover, the GI50 in assay [3] and in assay [7] was 301 to 1000 nM each time. At 0.25 µM the inhibition in assay [4] was 22%. In addition, the inhibition at 0.5 µM in assay [4] was 50.9%. Besides, at 1 µM the inhibition in assay [4] was 71.2%.
For `COc1cc(S(=O)(=O)N2CCC(N3C[C@@H]4C[C@H]3CO4)CC2)ccc1Nc1cc(C2CC2)c2c(C(F)(F)F)c[nH]c2n1` [Example 240, N-(4-((4-((1S,4S)-2-oxa-5-azabicyclo[2.2.1]heptan-5-yl)piperidin-1-yl)sulfonyl)-2-methoxyphenyl)-4-cyclopropyl-3-(trifluoromethyl)-1H-pyrrolo[2,3-b]pyridin-6-amine], the half-maximal inhibitory concentration (IC50) was less than 100 nM in assay [9], less than 100 nM in [2], less than 100 nM in assay [10] and 301 to 1000 nM in assay [8]. In addition, the 50% growth inhibitory concentration (GI50) in assay [3] and in assay [7] was 301 to 1000 nM each time. The same compound came in with an inhibition at 0.25 µM in assay [4] of 8.9%. The same compound came in with an inhibition at 0.5 µM in assay [4] of 16.5%. The compound also returned an inhibition at 1 µM in [4] of 36.3%.
